pIC50: −log10 of the molar value. Several values for one entry are separate records, joined by “and”; a condition that tells them apart may be missing. Identical values can stand only once. Entries after “also recorded” stand apart in the source; their conditions may differ. Like-named read-outs stand apart in the source and are kept apart here.
Experiments:
[1] = test system: breast cancer (2LMP) cells; test: WST cell viability assay, 2LMP
From the text: IC50 values were obtained for cytotoxicity against breast cancer (2LMP), glioblastoma (U-87) and lung cancer (A549) cells (See Table 5 and FIGS. 3-5).

lung cancer (A549) cells = test: WST cell viability assay, A549; type: cell-based; conditions: Homo sapiens, A549, read-out: IC50 A549
PP2A [2] = test: PP2A activity in mouse brains after IP dosing (PP2A immunoprecipitation phosphatase assay, malachite green); type: in vivo, Balb/c mice; conditions: for Average Conc. (group of 3 mice) / Average Relative Activity (group, vehicle = 100) / Conc. (phosphate, single reading, per mouse) / Mean Conc. (per mouse) / Mean Conc. less IgG blank (per mouse) / Relative Conc. (per mouse, to vehicle) / Relative PP2A Activity (per mouse, vehicle = 100): brain; for PP2A activity in brains as compared with vehicle: high doses IP
Procedure, shortened: (§1)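 Female Balb/c mice (6-8 weeks) were dosed IP with compound in 4% sodium bicarbonate; brain and liver were harvested 3 h and 6 h post-dose. PP2A was immunoprecipitated from 240 μg lysate with anti-PP2A, using normal IgG as control. Phosphatase activity on a threonine phosphopeptide was read by malachite green absorbance against a phosphate standard curve.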

PP2A [3] = test: PP2A activity in mouse livers after IP dosing (PP2A immunoprecipitation phosphatase assay, malachite green); type: in vivo, Balb/c mice; conditions: for Average Conc. (group of 3 mice) / Average Relative Activity (group, vehicle = 100) / Conc. (phosphate, single reading, per mouse) / Mean Conc. (per mouse) / Mean Conc. less IgG blank (per mouse) / Relative Conc. (per mouse, to vehicle) / Relative PP2A Activity (per mouse, vehicle = 100): liver
Procedure, shortened: as §1

[4] = test system: glioblastoma (U-87) cells; test: WST cell viability assay, U-87 MG; type: cell-based; conditions: Homo sapiens, U-87 MG
[5] = IP, dose and time not specified
[6] = high dose IP (mpk: 100 1.5, 113 2.2, 151 1.6, 153 1.7, 157 2.0), 3 h
[7] = high dose IP (mpk: 100 1.5, 113 2.2, 151 1.6, 153 1.7, 157 2.0), 6 h
[8] = low dose IP (mpk: 100 0.75, 113 1.1, 151 0.8, 153 0.85, 157 1.0), 3 h
[9] = low dose IP (mpk: 100 0.75, 113 1.1, 151 0.8, 153 0.85, 157 1.0), 6 h
[10] = high dose IP (mpk: 100 1.5, 113 2.2, 151 1.6, 157 2.0), 3 h
[11] = high dose IP (mpk: 100 1.5, 113 2.2, 151 1.6, 157 2.0), 6 h

CCCCCCCOC(=O)C1C2CCC(O2)C1C(=O)N1CCN(C)CC1 (centres unmarked) [Compound 157, 3-(4-Methylpiperazine-1-carbonyl)-7-oxa-bicyclo[2,2,1]heptane-2-carboxylic acid heptyl ester]
pIC50 ([1]; read-out: IC50 2LMP, WST-20131015 (first value of the cell)): 4.04 | pIC50 ([1]; read-out: IC50 2LMP, WST-20131025 (second value of the cell)): 4.02 | pIC50 (lung cancer (A549) cells): < 4.00 | PP2A activity in the brain of mice (statement) (PP2A [2]; [5]): inhibited PP2A activity | Average Conc. (group of 3 mice) (PP2A [2]; [6]): 1343.13 | Average Relative Activity (group, vehicle = 100) (PP2A [2]; [6]): 54.50 | Conc. (phosphate, single reading, per mouse) (PP2A [2]; [6]): 1589.30 and 1726.49 and 1634.83 and 1576.29 and 896.81 and 863.27 | Mean Conc. (per mouse) (PP2A [2]; [6]): 1657.89 and 1605.56 and 880.04 | Mean Conc. less IgG blank (per mouse) (PP2A [2]; [6]): 1619.87 and 1567.53 and 842.01 | Relative Conc. (per mouse, to vehicle) (PP2A [2]; [6]): 0.75 and 0.72 and 0.39 | Relative PP2A Activity (per mouse, vehicle = 100) (PP2A [2]; [6]): 65.72 and 63.60 and 34.16 | Average Conc. (group of 3 mice) (PP2A [2]; [7]): 1748.29 | Average Relative Activity (group, vehicle = 100) (PP2A [2]; [7]): 62.95 | Conc. (phosphate, single reading, per mouse) (PP2A [2]; [7]): 1929.55 and 2102.31 and 1375.88 and 1308.40 and 1958.00 and 2043.77 | Mean Conc. (per mouse) (PP2A [2]; [7]): 2015.93 and 1342.14 and 2000.89 | Mean Conc. less IgG blank (per mouse) (PP2A [2]; [7]): 1977.90 and 1304.11 and 1962.86 | Relative Conc. (per mouse, to vehicle) (PP2A [2]; [7]): 0.81 and 0.53 and 0.80 | Relative PP2A Activity (per mouse, vehicle = 100) (PP2A [2]; [7]): 71.22 and 46.96 and 70.67 | activity of PP2A in brains (statement) (PP2A [2]; high dose IP, 3 h): most potent; also recorded: significantly inhibited; also recorded: more effectively than compound 100 | activity of PP2A in brains (statement) (PP2A [2]; high dose IP, 6 h): most potent; also recorded: significantly inhibited; also recorded: more effectively than compound 100 | PP2A activity in brains as compared with vehicle (PP2A [2]; 3 h post treatment): 51% | PP2A activity in brains as compared with vehicle (PP2A [2]; 6 h post treatment): 63% | Average Conc. (group of 3 mice) (PP2A [2]; [8]): 1523.35 | Average Relative Activity (group, vehicle = 100) (PP2A [2]; [8]): 61.81 | Conc. (phosphate, single reading, per mouse) (PP2A [2]; [8]): 1696.01 and 1732.18 and 1420.80 and 1346.00 and 1604.74 and 1568.56 | Mean Conc. (per mouse) (PP2A [2]; [8]): 1714.09 and 1383.40 and 1586.65 | Mean Conc. less IgG blank (per mouse) (PP2A [2]; [8]): 1676.07 and 1345.37 and 1548.63 | Relative Conc. (per mouse, to vehicle) (PP2A [2]; [8]): 0.77 and 0.62 and 0.71 | Relative PP2A Activity (per mouse, vehicle = 100) (PP2A [2]; [8]): 68.00 and 54.59 and 62.83 | Average Conc. (group of 3 mice) (PP2A [2]; [9]): 1413.26 | Average Relative Activity (group, vehicle = 100) (PP2A [2]; [9]): 50.88 | Conc. (phosphate, single reading, per mouse) (PP2A [2]; [9]): 1975.68 and 1782.39 and 1408.40 and 1380.55 and 1075.87 and 1084.82 | Mean Conc. (per mouse) (PP2A [2]; [9]): 1879.04 and 1394.48 and 1080.34 | Mean Conc. less IgG blank (per mouse) (PP2A [2]; [9]): 1841.01 and 1356.45 and 1042.32 | Relative Conc. (per mouse, to vehicle) (PP2A [2]; [9]): 0.75 and 0.55 and 0.43 | Relative PP2A Activity (per mouse, vehicle = 100) (PP2A [2]; [9]): 66.29 and 48.84 and 37.53 | activity of PP2A in brains (statement) (PP2A [2]; low dose IP, 6 h): most potent | PP2A activity in the liver of mice (statement) (PP2A [3]; [5]): inhibited PP2A activity | Average Conc. (group of 3 mice) (PP2A [3]; [10]): 234.28 | Average Relative Activity (group, vehicle = 100) (PP2A [3]; [10]): 55.78 | Conc. (phosphate, single reading, per mouse) (PP2A [3]; [10]): 344.85 and 360.53 and 257.33 and 287.81 and 202.46 and 225.54 | Mean Conc. (per mouse) (PP2A [3]; [10]): 352.69 and 272.57 and 214 | Mean Conc. less IgG blank (per mouse) (PP2A [3]; [10]): 307.22 and 227.09 and 168.52 | Relative Conc. (per mouse, to vehicle) (PP2A [3]; [10]): 0.73 and 0.54 and 0.4 | Relative PP2A Activity (per mouse, vehicle = 100) (PP2A [3]; [10]): 73.15 and 54.07 and 40.13 | Average Conc. (group of 3 mice) (PP2A [3]; [11]): 232.03 | Average Relative Activity (group, vehicle = 100) (PP2A [3]; [11]): 52.2 | Conc. (phosphate, single reading, per mouse) (PP2A [3]; [11]): 266.91 and 213.78 and 382.3 and 411.92 and 190.7 and 199.41 | Mean Conc. (per mouse) (PP2A [3]; [11]): 240.34 and 397.11 and 195.06 | Mean Conc. less IgG blank (per mouse) (PP2A [3]; [11]): 194.87 and 351.63 and 149.58 | Relative Conc. (per mouse, to vehicle) (PP2A [3]; [11]): 0.44 and 0.79 and 0.34 | Relative PP2A Activity (per mouse, vehicle = 100) (PP2A [3]; [11]): 43.84 and 79.11 and 33.65 | activity of PP2A in livers as compared with vehicle (statement) (PP2A [3]; high dose IP, 6 h post treatment): significantly inhibited | Average Conc. (group of 3 mice) (PP2A [3]; [8]): 328.84 | Average Relative Activity (group, vehicle = 100) (PP2A [3]; [8]): 78.3 | Average Conc. (group of 3 mice) (PP2A [3]; [9]): 359.62 | Average Relative Activity (group, vehicle = 100) (PP2A [3]; [9]): 80.9 | pIC50 ([4]; read-out: IC50 U-87 MG, WST-20131017 (first value of the cell)): < 4.00 | pIC50 ([4]; read-out: IC50 U-87 MG, WST-20131024 (second value of the cell)): < 4.00
